# Data published in ChEMBL document CHEMBL1201862, “PubChem BioAssay data set” (2004).
# The source made the active and inactive calls.
# Columns and labels:
# [1] = molecular target: T1, Protein RecA (Mycobacterium tuberculosis, UniProt P9WHJ3); assay: Fluorescence Cell-Free Homogeneous Dose Retest to Identify Inhibitors of RecA-Intein Splicing Activity. [Related pubchem assays (depositor defined):AID2097, AID2223, AID489010, AID492950]; type: functional
# T1 sequence (P9WHJ3 whole entry): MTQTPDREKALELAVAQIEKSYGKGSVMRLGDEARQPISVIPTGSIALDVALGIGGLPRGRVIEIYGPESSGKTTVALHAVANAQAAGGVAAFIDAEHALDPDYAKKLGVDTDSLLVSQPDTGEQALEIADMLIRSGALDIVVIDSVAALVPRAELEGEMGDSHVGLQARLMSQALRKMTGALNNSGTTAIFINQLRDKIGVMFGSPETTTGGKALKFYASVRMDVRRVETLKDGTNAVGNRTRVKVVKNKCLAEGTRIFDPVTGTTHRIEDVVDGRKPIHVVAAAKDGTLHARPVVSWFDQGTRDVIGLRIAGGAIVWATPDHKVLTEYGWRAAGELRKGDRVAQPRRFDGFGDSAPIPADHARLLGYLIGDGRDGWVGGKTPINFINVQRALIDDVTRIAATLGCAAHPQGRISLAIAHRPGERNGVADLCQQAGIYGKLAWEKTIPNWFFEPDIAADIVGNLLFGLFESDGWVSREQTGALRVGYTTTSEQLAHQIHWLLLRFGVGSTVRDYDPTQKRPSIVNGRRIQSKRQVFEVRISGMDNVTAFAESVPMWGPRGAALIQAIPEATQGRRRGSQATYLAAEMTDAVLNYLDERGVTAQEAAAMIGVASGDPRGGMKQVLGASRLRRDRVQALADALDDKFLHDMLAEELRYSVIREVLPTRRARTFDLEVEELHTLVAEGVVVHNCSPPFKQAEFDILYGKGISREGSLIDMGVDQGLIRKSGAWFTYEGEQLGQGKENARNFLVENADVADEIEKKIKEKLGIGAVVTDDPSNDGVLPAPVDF
# [2] = molecular target: T2, Replicative DNA helicase DnaB (Mycobacterium tuberculosis, UniProt P9WMR3); assay: DnaB intein splicing inhibitors, dose response, biochemical, cell-free fluorescence (AID 449749); type: functional
# T2 sequence (P9WMR3 whole entry): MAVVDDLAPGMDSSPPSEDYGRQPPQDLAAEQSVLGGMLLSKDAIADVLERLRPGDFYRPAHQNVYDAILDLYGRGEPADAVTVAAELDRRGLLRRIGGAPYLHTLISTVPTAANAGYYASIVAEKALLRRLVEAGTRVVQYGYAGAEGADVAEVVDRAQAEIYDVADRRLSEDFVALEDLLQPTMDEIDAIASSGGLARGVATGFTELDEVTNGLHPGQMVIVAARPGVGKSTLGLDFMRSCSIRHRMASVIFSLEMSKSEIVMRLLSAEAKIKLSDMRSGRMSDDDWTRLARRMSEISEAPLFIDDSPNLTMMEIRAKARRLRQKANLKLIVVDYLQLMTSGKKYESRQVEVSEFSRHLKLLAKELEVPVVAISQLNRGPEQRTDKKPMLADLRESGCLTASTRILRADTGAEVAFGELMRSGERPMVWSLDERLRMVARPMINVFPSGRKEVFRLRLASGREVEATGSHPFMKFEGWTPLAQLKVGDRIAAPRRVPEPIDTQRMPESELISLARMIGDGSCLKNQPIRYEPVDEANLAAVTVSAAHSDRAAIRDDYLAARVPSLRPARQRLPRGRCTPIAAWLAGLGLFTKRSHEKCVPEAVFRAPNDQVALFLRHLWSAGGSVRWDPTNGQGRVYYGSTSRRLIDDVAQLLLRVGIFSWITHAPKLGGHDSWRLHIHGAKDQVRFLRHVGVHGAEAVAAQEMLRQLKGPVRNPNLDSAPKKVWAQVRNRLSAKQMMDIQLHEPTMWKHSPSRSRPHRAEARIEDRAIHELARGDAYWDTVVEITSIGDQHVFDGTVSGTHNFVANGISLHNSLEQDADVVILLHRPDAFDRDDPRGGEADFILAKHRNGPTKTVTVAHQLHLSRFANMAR
# [3] = molecular target: T3, Caspase-3 (Homo sapiens, UniProt P42574); assay: activators of human procaspase-3 D3A mutant – biochemical, absorbance, PC-3 D3A mutant, counter-screen for dual procaspase-3/7 activator project, dose response (AID 504328)
# T3 sequence (P42574 whole entry): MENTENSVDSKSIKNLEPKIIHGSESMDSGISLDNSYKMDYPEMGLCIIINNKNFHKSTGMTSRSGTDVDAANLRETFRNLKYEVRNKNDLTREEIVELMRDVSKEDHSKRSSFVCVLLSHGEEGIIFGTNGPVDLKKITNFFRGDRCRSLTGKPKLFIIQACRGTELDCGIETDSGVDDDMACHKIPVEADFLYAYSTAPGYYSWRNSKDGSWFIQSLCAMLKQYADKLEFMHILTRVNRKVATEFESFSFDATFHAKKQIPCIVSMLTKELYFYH
# [4] = molecular target: Caspase-7 (Homo sapiens, UniProt P55210); assay: potency of procaspase-7 enzyme activation – biochemical, absorbance, human, dual procaspase-3/-7 activator project, dose response (AID 504330)
# [5] = molecular target: T4, Tyrosine-protein phosphatase non-receptor type 7 (Homo sapiens, UniProt P35236); assay: SAR analysis of chemical inhibitors of HePTP using a Fluorescent assay - Set 2. [Related pubchem assays (depositor defined):AID1059, AID1077, AID1661, AID2085, AID521]; type: functional
# T4 sequence (P35236 whole entry): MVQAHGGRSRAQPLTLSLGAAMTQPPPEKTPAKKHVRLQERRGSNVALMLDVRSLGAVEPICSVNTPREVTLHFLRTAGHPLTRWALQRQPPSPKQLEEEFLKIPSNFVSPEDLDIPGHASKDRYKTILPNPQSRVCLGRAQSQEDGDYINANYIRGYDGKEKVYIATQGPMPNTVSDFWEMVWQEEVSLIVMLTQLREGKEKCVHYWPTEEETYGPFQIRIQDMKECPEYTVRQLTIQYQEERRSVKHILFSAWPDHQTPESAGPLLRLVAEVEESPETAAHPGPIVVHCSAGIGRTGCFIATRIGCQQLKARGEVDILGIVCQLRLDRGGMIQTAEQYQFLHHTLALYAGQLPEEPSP
# [6] = molecular target: Dual specificity protein phosphatase 3 (Homo sapiens, UniProt P51452); assay: SAR VHR1 Fluorescent Assay for In Vitro dose response studies Set 2. [Related pubchem assays (depositor defined):AID1654, AID1661, AID1878]; type: functional
# Sequence of Dual specificity protein phosphatase 3 (P51452 whole entry): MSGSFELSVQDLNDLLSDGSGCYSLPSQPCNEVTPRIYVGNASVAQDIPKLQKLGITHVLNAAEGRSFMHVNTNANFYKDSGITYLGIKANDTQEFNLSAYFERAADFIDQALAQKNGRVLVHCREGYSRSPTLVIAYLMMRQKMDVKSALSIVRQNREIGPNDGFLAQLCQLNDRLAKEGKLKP
# [7] = molecular target: Alkaline phosphatase, placental type (Homo sapiens, UniProt P05187); assay: human placental alkaline phosphatase inhibition – biochemical, luminescence, confirmation (AID 1512); type: functional
# Sequence of Alkaline phosphatase, placental type (P05187 whole entry): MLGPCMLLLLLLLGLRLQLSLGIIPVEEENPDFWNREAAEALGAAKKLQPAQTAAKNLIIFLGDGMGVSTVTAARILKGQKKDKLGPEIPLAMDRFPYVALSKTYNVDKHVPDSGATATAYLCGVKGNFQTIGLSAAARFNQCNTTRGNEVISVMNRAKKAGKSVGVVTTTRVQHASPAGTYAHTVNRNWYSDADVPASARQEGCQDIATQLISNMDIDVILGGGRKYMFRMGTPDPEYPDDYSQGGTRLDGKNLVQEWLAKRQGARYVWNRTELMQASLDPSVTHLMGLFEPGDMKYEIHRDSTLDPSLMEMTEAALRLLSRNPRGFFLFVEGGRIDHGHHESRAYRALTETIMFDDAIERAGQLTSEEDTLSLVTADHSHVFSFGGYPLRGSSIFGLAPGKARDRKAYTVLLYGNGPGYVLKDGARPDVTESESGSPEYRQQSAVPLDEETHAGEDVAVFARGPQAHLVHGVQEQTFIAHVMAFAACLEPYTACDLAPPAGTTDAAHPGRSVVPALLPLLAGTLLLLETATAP
# [8] = molecular target: T5, G-protein coupled receptor 55 (Homo sapiens, UniProt Q9Y2T6); assay: selective activators of receptor GPR55 – imaging, U2OS cells, beta-arrestin-GFP redistribution, primary screen (AID 1961); type: functional
# T5 sequence (Q9Y2T6 whole entry): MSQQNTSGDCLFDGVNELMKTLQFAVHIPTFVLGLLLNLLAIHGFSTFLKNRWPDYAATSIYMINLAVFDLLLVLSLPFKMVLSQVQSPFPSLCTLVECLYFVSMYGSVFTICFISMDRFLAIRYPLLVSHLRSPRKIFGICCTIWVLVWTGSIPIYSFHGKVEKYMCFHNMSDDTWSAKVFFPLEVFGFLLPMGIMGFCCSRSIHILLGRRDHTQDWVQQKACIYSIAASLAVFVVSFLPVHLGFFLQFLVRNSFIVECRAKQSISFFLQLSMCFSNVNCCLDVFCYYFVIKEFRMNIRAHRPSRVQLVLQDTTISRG
# [9] = molecular target: T5, G-protein coupled receptor 55; assay: inhibition of LPI-stimulated GPR55 beta-arrestin translocation – imaging, U2OS, beta-arrestin-GFP, LPI agonist, primary screen (AID 2013); type: functional;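 note: antagonist potency measured as reduced agonist-driven arrestin aggregation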
# [10] = molecular target: Voltage-dependent T-type calcium channel subunit alpha-1H (Homo sapiens, UniProt O95180); type: functional;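 note: channel activity triggered by adding a high calcium stimulation buffer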
# Sequence of Voltage-dependent T-type calcium channel subunit alpha-1H (O95180 whole entry): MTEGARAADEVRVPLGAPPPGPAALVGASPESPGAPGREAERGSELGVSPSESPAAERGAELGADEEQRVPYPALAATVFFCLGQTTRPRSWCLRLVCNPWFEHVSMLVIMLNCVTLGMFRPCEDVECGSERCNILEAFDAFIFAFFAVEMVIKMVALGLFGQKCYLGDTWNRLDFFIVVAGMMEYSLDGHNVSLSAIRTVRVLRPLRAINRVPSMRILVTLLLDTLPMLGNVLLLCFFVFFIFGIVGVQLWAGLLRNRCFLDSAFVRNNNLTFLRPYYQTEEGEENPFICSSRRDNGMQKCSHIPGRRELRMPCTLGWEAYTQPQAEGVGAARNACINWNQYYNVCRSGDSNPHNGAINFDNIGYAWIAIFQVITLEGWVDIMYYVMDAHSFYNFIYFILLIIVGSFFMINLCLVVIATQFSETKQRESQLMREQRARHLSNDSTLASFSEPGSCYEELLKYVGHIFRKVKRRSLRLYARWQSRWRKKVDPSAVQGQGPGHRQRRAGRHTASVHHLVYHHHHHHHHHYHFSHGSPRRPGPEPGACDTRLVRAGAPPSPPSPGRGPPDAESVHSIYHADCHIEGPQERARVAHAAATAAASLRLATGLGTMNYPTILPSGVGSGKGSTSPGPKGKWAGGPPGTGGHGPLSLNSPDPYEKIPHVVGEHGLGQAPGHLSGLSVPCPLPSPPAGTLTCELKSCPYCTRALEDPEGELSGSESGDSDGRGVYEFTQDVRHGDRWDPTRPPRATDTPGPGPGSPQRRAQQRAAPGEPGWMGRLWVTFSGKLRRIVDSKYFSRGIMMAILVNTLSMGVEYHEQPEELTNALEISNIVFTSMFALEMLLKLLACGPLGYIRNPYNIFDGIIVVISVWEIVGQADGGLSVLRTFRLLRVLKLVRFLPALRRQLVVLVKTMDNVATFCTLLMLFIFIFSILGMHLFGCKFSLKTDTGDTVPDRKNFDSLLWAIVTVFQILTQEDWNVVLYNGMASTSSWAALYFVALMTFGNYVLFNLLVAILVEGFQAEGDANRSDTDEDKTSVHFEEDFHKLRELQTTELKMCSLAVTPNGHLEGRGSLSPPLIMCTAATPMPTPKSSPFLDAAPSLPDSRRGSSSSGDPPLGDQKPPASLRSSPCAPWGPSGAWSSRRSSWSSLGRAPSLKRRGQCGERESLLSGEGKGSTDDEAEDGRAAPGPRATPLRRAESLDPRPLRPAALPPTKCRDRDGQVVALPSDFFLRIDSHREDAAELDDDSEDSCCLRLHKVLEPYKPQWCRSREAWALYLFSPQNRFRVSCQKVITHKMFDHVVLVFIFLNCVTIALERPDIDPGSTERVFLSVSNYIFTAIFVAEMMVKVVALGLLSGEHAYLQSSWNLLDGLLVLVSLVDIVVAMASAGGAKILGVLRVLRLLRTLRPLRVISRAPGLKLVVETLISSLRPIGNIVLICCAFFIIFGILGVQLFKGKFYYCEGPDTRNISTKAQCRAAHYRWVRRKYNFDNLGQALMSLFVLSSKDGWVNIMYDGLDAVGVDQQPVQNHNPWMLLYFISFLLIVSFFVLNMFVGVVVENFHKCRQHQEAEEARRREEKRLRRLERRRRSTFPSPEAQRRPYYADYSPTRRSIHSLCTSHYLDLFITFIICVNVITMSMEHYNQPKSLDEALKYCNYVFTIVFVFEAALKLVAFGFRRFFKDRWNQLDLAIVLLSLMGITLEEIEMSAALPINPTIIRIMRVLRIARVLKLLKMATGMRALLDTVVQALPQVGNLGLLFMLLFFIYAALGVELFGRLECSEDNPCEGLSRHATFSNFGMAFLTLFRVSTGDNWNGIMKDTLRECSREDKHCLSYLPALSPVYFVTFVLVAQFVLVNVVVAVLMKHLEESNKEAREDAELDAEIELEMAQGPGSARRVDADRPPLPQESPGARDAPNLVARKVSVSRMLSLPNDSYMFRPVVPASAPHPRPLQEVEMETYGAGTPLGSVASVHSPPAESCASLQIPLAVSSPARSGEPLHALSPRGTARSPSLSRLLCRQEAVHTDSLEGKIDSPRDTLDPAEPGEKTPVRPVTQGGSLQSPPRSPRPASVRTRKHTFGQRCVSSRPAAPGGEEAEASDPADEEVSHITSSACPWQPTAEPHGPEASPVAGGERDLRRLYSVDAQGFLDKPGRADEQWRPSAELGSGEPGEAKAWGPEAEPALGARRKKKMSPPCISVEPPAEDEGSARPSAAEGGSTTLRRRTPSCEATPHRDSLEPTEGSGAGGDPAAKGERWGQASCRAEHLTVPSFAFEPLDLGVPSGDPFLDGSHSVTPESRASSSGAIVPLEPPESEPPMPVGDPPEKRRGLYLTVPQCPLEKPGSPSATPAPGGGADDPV
structure (smiles),measurement,setting,value
Cc1n[nH]c2c1C(c1c[nH]c3ccccc13)C(C#N)=C(N)O2 (stereo not given),EC50,[1],2.03 µM (active)
same,AC50,[2],3.79 µM (active)
same,EC50,[3],23.1 µM (inactive)
same,EC50,[4],27.8 µM (inactive)
Cc1ccc(NC(S)=NNC(=O)c2cn(C)nc2C)cc1,IC50,[5],> 100 µM (inactive)
same,IC50,[6],> 100 µM (inactive)
same,IC50,[7],> 100 µM (inactive)
COc1cc2c(cc1NC(=O)CSc1ccc(Cl)cc1)oc1ccccc12,EC50,[8],20.7 µM (inactive)
CCN(c1ccccc1)S(=O)(=O)c1ccc(NCC2COc3ccccc3O2)nc1 (stereo not given),IC50,[9],6.56 µM (active)
same,EC50,[10],7.97 µM (active)
